From patent publication US8283311B2, “Peptide-containing food intake regulator” (Maruha Nichiro Foods, Inc., priority 2008, dated 2012)
Ends that are not written are not given here.

Test system: Male SD rats
Experiment: Measurement of food intake after intravenous administration
Type: in vivo
Details: test conditions not stated for this peptide
Experimental: Male SD rats (Sprague-Dawley, body weight of 275±25 g) were housed and fed in 45×23×15-cm APECR cages, five rats per cage. The rats were acclimated for 1 week or more on a 12-h light/12-h dark cycle at a room temperature of 22 to 24° C. and a humidity of 60 to 80% with free access to food and water before the test. The rats used for the test were fasted for 12 hours overnight before initiation of the test. After fasting, the samples to be tested as the food intake regulator were dissolved in saline and the dissolved test samples were intravenously given (150 μg/body) to the rats, respectively, in the treatment group and, then, their food intakes were measured 1, 2, 4, and […] administration. In contrast, in the control group, saline was intravenously given and their food intakes were measured in the same way.

Sequence: GRVYRPCWQV [SEQ ID NO: 34]
- food intake regulation activity: no food intake regulation activity
